Results published in US8404665B2, “In vivo use of glutathione S-transferase activated nitric oxide donors” (University of Utah Research Foundation, priority 2002, dated 2013).
Like-named read-outs stand apart in the source and are kept apart here.

System: HL-60 cells
Experiment: HL-60 leukemia cell growth (Coulter counter or MTT assay)
Type: cell-based, human
Details: for IC50: Homo sapiens; for effect on cell growth: HL-60, NAC 0.3-0.5 mM or BSO 0.2-0.3 mM alone; for inhibition of cell growth: HL-60 screen
Protocol: Cell Lines and Culture Conditions. HL-60, DLD1, and U937 cells were obtained from ATCC (Rockville, Md.). Meth A cells were from Dr. Wolfram Samlowski (University of Utah, Salt Lake City, Utah). The PPC-1 cell line was provided by Dr. Graeme Bolger (University of Alabama, Birmingham, Ala.). For the cell growth and apoptosis experiments, cells were cultured at a density of 150,000 cells/ml in RPMI-1640 with 10% fetal bovine serum at 37° C. in a 5% CO2 humidified atmosphere. Agents were added at the indicated concentrations 24 h after culture initiation. At the indicated time intervals, cells were harvested and washed twice in phosphate buffered saline (PBS) prior to processing for analysis of growth, differentiation, and apoptosis.
Cell Growth, Differentiation and Apoptosis Assays. The number of viable cells was determined using the MTT assay according to the manufacturer's protocol (Promega, Madison, Wis.) or using a Coulter counter. Briefly, a MTT assay is an analytical technique that uses the dye dimethylthiazolyl-diphenyltetrazolium (MTT) which turns from yellow to brownish-purple as it is reduced in the mitochondria of living cells. The assay is useful in calorimetric quantitation of cell viability and proliferation. In contrast, cell differentiation was evaluated using Wright and Non-Specific Esterase (NSE) staining of cells collected on microscope slides by cytospin as previously described (Magrinat, G. et al. (1992) Blood 80: 1880-1884). Apoptosis was assayed by flow cytometry and by determining DNA fragmentation using agarose gel electrophoresis as previously described (Shami, P. J. et al. (1998) Leukemia 12: 1461-1466). For the flow cytometry assay, we used the propidium iodide staining method of Nicoletti et al. (Nicoletti, I. et al. (1991) J. Immunol. Methods 139: 271-279).
For the initial screen, HL60 cells were cultured in triplicate in RPMI1640/10% FBS under standard conditions. Compounds were added to the cultures at the following concentrations: 0, 0.1, 1, 10, and 100 micromolar (uM). Three days after addition of the compounds cell growth was determined either using a Coulter counter or using the MTT assay.
The antiproliferative effects in the human AML (Acute Myeloid Leukemia) cell lines, HL-60 (myeloid leukemia) and U937 (monoblastic leukemia) cells were treated with JS-K for a period of 3 days, upon which cell growth was evaluated using a Coulter counter (CITY, STATE). JS-K was added to HL-60 cells at 0, 0.25, 0.5, 0.75, and 1.0 μM concentrations. […] Similar results were obtained in U937 cells under similar conditions.

[1] = HL-60 assay system, comparison with chemotherapeutic agents, read-out: IC50, growth inhibition

COc1cccc2c1C(=O)c1c(O)c3c(c(O)c1C2=O)C[C@@](O)(C(C)=O)C[C@@H]3O[C@H]1C[C@H](N)[C@H](O)[C@H](C)O1 [daunorubicin, reference compound]
IC50 [1]: 10 nM

COc1cc([C@@H]2c3cc4c(cc3[C@@H](O[C@@H]3O[C@@H]5CO[C@@H](C)O[C@H]5[C@H](O)[C@H]3O)[C@H]3COC(=O)[C@H]23)OCO4)cc(OC)c1O [etoposide, reference compound]
IC50 [1]: 300 nM

CCCCS(=N)(=O)CCC(N)C(=O)O (stereo not shown) [BSO, buthionine sulfoximine, reference compound]
effect on cell growth: did not appear to significantly affect cell growth

O=[N+]([O-])c1ccc(ON=[N+]([O-])N2CCN(c3ncccn3)CC2)c([N+](=O)[O-])c1 [JXC-2-56, O^2-(2,4-dinitrophenyl) 1-[4-(pyrimidin-2-yl)piperazin-1-yl]diazen-1-ium-1,2-diolate]
inhibition of cell growth: good inhibitors of cell growth

O=[N+]([O-])c1ccc(ON=[N+]([O-])N2CCN(c3ccccc3)CC2)c([N+](=O)[O-])c1 [JXC-2-40, O^2-(2,4-dinitrophenyl) 1-[4-phenylpiperazin-1-yl]diazen-1-ium-1,2-diolate]
inhibition of cell growth: good inhibitors of cell growth

O=[N+]([O-])c1ccc(Cl)c([N+](=O)[O-])c1 [1-Chloro-2,4-dinitrobenzene, reference compound]
IC50 (HL-60, read-out: IC50, growth inhibition): ~6700 nM

CC(=O)N[C@@H](CS)C(=O)O [NAC, N-acetyl-L-cysteine, reference compound]
effect on cell growth: did not appear to significantly affect cell growth
